Test results: patent publication US20160038526A1, “TREATMENT OF PROSTATE CANCER” (THOMAS JEFFERSON UNIVERSITY, priority 2012, published 2016)

Experiments:
Stat3 = Stat3 (Homo sapiens, UniProt P40763); assay: IL-6-induced nuclear translocation of Stat3 in DU145 cells (immunofluorescence); format: cell-based; design: endogenous in cells; host or cells: DU145; conditions: 2 hours pretreatment, 10 nmol/L IL-6 30 minutes
Experimental: DU145 prostate cancer cells were pretreated with N6BAP or vehicle (DMSO) for 2 hours and then stimulated with 10 nmol/L IL-6 for 30 minutes. Cells were fixed with 100% methanol for 15 min and subsequently permeabilized with 0.1% Triton X-100 in PBS (pH 7.4). After blocking with 2% bovine serum albumin in PBS, cells were incubated with an antibody specific for Stat3 at 4° C. for 2 hours. Cells were then washed with PBS and incubated with FITC-conjugated secondary antibody (Jackson ImmunoResearch) at room temperature for 1 hour. The images were taken by using an inverted fluorescence microscopy (Carl Zeiss).

Stat5a = molecular target: T1, Stat5a (Homo sapiens, UniProt P42229); assay: Stat5 dimerization assay (FLAG-/MYC-tagged Stat5a co-immunoprecipitation) in PC-3 cells; format: cell-based; design: expressed in transfected cells; host or cells: PC-3; conditions: 2 hours pretreatment, hPrl 10 nM 30 minutes
T1 sequence (P42229 1-794): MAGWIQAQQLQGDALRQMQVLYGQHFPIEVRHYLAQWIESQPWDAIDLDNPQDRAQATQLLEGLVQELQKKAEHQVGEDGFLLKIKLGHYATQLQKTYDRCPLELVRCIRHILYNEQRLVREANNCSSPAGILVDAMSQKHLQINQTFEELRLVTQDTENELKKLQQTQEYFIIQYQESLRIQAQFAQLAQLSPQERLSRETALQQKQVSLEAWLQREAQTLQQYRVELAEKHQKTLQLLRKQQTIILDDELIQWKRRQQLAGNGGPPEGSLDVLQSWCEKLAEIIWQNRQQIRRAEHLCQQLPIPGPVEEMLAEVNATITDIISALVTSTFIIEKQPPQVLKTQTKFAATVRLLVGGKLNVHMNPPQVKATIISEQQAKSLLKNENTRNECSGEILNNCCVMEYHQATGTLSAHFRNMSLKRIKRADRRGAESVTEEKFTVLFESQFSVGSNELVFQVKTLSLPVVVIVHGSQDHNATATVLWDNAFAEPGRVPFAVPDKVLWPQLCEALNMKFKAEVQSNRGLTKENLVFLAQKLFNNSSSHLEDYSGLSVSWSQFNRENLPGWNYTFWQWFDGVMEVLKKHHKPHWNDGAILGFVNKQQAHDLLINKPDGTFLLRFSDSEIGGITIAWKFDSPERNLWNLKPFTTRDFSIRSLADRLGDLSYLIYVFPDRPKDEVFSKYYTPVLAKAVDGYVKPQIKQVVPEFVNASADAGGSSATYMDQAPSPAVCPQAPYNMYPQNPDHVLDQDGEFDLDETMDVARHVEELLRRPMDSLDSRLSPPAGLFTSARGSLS
Experimental: FLAG-tagged Stat5a and MYC-tagged Stat5a were generated as follows. Plasmid pCMV3-FLAG-Stat5a, pCMV3-MYC-Stat5a and pPrlR were co-transfected using FuGENE6 (Roche) into PC-3 cells (2 μg of each plasmid per 1×10^7 cells). The cells were starved for 20 hours, pretreated with N6BAP for 2 hours, then stimulated with hPrl (10 nM) in RPMI 1640 without serum for 30 minutes. The cell lysates were immunoprecipitated with 25 μl anti-FLAG M2 […] affinity gel (2 μg/ml, Sigma), anti-MYC pAb (1 μg/ml, Upstate) or normal rabbit serum (NRS). The primary antibodies were used in the immunoblottings at the following concentrations: anti-FLAG pAb (1:1000; Stratagene), anti-MYC mAb (1:1000; Sigma), anti-Stat5a/b mAb (1:250) (Transduction Laboratories) detected by horseradish peroxidase-conjugated secondary antibodies.
Lanes 1, 2, 4, 6, 8, 10, 12, 14 and 16 represent cells stimulated with human prolactin (Prl) for 30 minutes which induces dimerization of Stat5. Two hours prior to Prl-stimulation, the cells had been treated with DMSO (lanes 1-4), the control compound C5 (lanes 5 and 6) or N6BAP (lanes 7-16) to test whether the Stat5a/b-inhibitor compound, N6BAP, would be able to inhibit dimerization of Stat5. […] It should be noted the drug effect in this study was not due to cell apoptosis induction, as the treatment time was only 2 hours. […]

Stat5a/b = assay: Clinical prostate cancers ex vivo in explant organ cultures: nuclear Stat5a/b immunohistochemistry; format: cell-based, human; conditions: 7 days, N6BAP 5, 10, 25, 50 and 100 μM; C5 100 m
Experimental: The specimens comprised de-identified excess tissue obtained after the completion of pathology diagnosis. A zero-sample prior to organ culture was formalin-fixed for each individual prostate cancer for the analysis of the nuclear Stat5a/b status. The prostate organ cultures were performed as described earlier (Ahonen et al., Endocrinology (2002), 143:228-238). Briefly, prostate cancer tissue was cut into approximately 1 mm^3 pieces in a plain culture medium and transferred onto lens papers lying on stainless steel grids in petri dishes. The medium was phenol-free medium 199 with Earle's salts (Sigma) containing dialyzed 5% fetal calf serum, G-penicillin (100 IU/ml), streptomycin sulfate ([…]), and glutamine (100 μg/ml). […] Tissue explants were cultured in a medium containing the N6BAP or control compound C5 at indicated concentrations (C5: […]; N6BAP: 5, 10, 25, 50 and 100 μM) 7 days, after which the explants were fixed in formalin and analyzed for Stat5a/b activation and viability of prostate cancer epithelial compartment. Viability of the epithelial cells in the prostate cancer explants at the end of the cultures were scored by counting the viable epithelial cells per explant.
Nuclear Stat5a/b indexes were determined by counting the Stat5-positive cells per 500 epithelial cells in the cultured explants in each treatment group.

Chain of Stat3 (P40763 whole entry, species assumed): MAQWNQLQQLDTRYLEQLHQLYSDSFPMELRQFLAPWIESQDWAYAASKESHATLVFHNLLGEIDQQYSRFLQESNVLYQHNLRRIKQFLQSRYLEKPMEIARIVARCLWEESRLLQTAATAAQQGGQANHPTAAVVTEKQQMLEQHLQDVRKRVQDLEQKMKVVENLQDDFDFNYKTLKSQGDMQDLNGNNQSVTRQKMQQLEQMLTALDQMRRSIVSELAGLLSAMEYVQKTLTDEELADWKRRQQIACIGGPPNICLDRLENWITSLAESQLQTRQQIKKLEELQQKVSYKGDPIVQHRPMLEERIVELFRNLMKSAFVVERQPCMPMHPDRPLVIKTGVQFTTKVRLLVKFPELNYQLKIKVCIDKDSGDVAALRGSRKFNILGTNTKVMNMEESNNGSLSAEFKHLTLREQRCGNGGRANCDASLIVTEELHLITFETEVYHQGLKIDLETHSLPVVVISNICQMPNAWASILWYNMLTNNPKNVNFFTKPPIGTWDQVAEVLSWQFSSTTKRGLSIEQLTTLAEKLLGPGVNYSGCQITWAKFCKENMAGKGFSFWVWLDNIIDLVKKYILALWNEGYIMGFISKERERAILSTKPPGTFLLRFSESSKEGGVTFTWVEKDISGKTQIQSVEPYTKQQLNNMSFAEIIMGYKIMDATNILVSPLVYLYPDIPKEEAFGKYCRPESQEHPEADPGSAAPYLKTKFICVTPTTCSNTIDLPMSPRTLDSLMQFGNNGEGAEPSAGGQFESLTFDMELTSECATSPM

| dimerization of Stat5a (Stat5a) | SMILES | nuclear translocation of IL-6-induced Stat3 (Stat3) | nuclear Stat5 expression in explant organ cultures (Stat5a/b) |
| --- | --- | --- | --- |
| – | Cc1cc(Nc2nc(N[C@@H](C)c3ncc(F)cn3)ncc2Cl)n[nH]1 [AZD1480, reference compound] | blocks nuclear translocation of IL-6-induced Stat3 efficiently | – |
| did not inhibit dimerization of Stat5a | Nc1nc(SCc2cccnc2)[nH]c(=O)c1NC(=O)c1ccco1 [C5, reference compound] | – | Intensive positive immunostaining for nuclear Stat5 |
